# Source: ChEMBL document CHEMBL1201862, “PubChem BioAssay data set” (2004)
# Calls of active or inactive are those of the source. No stated cut-off is given here; in the data, actives have a measured IC50 and inactives only a lower limit.
# Target: Envelope glycoprotein gp160 (Human immunodeficiency virus 1, UniProt Q6QLK5)
# Assay: inhibitors of HIV fusion peptide binding, primary screen, biochemical, uHTS, fluorescence dequenching (AID 1986)
# Sequence of Envelope glycoprotein gp160 (Q6QLK5 whole entry, the tested form may be a part): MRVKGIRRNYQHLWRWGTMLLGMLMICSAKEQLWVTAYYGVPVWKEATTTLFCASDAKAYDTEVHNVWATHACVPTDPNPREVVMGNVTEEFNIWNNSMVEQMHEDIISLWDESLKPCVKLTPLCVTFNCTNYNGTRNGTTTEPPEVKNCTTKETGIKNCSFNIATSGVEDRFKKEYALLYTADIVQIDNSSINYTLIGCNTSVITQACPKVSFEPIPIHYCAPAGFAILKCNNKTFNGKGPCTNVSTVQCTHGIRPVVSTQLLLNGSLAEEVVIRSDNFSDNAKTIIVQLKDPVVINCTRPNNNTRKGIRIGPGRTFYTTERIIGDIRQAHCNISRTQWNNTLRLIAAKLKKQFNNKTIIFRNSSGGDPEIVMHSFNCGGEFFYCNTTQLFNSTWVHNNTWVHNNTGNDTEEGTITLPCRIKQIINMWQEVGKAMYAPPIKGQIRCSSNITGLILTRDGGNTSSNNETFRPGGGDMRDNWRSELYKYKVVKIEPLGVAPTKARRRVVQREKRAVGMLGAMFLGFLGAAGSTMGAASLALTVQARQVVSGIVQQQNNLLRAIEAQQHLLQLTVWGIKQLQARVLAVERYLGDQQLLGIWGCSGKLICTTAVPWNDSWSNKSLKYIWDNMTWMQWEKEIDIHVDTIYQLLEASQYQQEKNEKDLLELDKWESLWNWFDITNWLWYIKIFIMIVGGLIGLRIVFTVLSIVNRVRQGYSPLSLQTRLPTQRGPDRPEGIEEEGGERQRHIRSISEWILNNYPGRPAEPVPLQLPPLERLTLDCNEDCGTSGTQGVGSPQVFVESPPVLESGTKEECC
compound,measurement,value
O=c1[nH]c(=S)[nH]c2c1C(c1ccc(Br)cc1)c1c([nH]c(=S)[nH]c1=O)O2,IC50,11.3 µM (active)
